Experiment [1] concerns M. tuberculosis clinical strain 15321. Nature of the experiment: MBC determination (CFU-based). The following applies: strain 15321: resistant to INH RFP EMB AK ETO OFLX RFT; 7 days incubation, 3 log10 CFU decrease.
In experiment [2] the test system is M. tuberculosis clinical strain 13908. The experiment is described as follows: MIC by microplate alamarBlue assay (MABA). In kind it is cell-based, Mycobacterium tuberculosis. The settings on record: strain 13908: resistant to INH RFP EMB 1321 PAS OFX LFX; for MIC: Mycobacterium tuberculosis. For orientation: Resazurin is reduced to fluorescent resorufin, in cell work by metabolically active cells.

Experiment [3] has as its system M. tuberculosis clinical strain 14862. Nature of the experiment: MIC by microplate alamarBlue assay (MABA). The format is cell-based, Mycobacterium tuberculosis. The following applies: strain 14862: resistant to INH SM RFP EMB 1321 CPM PAS; for MIC: Mycobacterium tuberculosis.
Experiment [4] has as its system M. tuberculosis clinical strain 14158. Nature of the experiment: MIC by microplate alamarBlue assay (MABA). In kind it is cell-based, Mycobacterium tuberculosis. The settings on record: strain 14158: resistant to INH SM RFP EMB AK 1321 PAS OFX; for MIC: Mycobacterium tuberculosis.
The subject of experiment [5] is M. tuberculosis clinical strain 14550. Nature of the experiment: MIC by microplate alamarBlue assay (MABA). The format is cell-based, Mycobacterium tuberculosis. The settings on record: strain 14550: resistant to INH SM RFP EMB KM CPM AK 1321 PAS; for MIC: Mycobacterium tuberculosis.
The subject of experiment [6] is M. tuberculosis clinical strain 14619. Nature of the experiment: MBC determination (CFU-based). The following applies: strain 14619: resistant to INH RFP KM CPM AK 1321 PAS; 7 days incubation, 3 log10 CFU decrease.
For experiment [7], the system named is M. tuberculosis clinical strain 14822. Nature of the experiment: MIC by microplate alamarBlue assay (MABA). In kind it is cell-based, Mycobacterium tuberculosis. The settings on record: strain 14822: resistant to INH SM RFP EMB KM RBT AK 1321 PAS; for MIC: Mycobacterium tuberculosis.
Experiment [8] has as its system M. tuberculosis clinical strain 16030. Nature of the experiment: MIC by microplate alamarBlue assay (MABA). In kind it is cell-based, Mycobacterium tuberculosis. The following applies: strain 16030: resistant to INH RFP RFT; for MIC: Mycobacterium tuberculosis.
Experiment [9] deals with M. tuberculosis clinical strain 15833. Nature of the experiment: MBC determination (CFU-based). The settings on record: strain 15833: resistant to INH RFP RFT; 7 days incubation, 3 log10 CFU decrease.
Experiment [10] has as its system M. tuberculosis clinical strain 14441. Nature of the experiment: MBC determination (CFU-based). The following applies: strain 14441: resistant to INH RFP RBT AK CPM 1321 OFLX LVFX; 7 days incubation, 3 log10 CFU decrease.
Experiment [11] concerns M. tuberculosis clinical strain 14282. Nature of the experiment: MIC by microplate alamarBlue assay (MABA). In kind it is cell-based, Mycobacterium tuberculosis. The settings on record: strain 14282: resistant to INH SM RFP EMB RBT 1321 OFX LFX; for MIC: Mycobacterium tuberculosis.
Experiment [12] has as its system M. tuberculosis clinical strain 14470. Nature of the experiment: MIC by microplate alamarBlue assay (MABA). The format is cell-based, Mycobacterium tuberculosis. The settings on record: strain 14470: resistant to INH SM RFP EMB KM RBT AK CPM 1321 PAS; for MIC: Mycobacterium tuberculosis.
The test system of experiment [13] is M. tuberculosis clinical strain 14092. The experiment is described as follows: MIC by microplate alamarBlue assay (MABA). In kind it is cell-based, Mycobacterium tuberculosis. The following applies: strain 14092: resistant to INH SM RFP; for MIC: Mycobacterium tuberculosis.
Experiment [14] relates to M. tuberculosis clinical strain 15321. Nature of the experiment: MIC by microplate alamarBlue assay (MABA). The settings on record: strain 15321: resistant to INH RFP EMB AK ETO OFX RFT; for MIC: Mycobacterium tuberculosis. In kind it is cell-based, Mycobacterium tuberculosis.
Experiment [15] has as its system M. tuberculosis clinical strain 15833. The experiment is described as follows: MIC by microplate alamarBlue assay (MABA). The format is cell-based, Mycobacterium tuberculosis. The following applies: strain 15833: resistant to INH RFP RFT; for MIC: Mycobacterium tuberculosis.
Experiment [16] has as its system M. tuberculosis clinical strain 13946. Nature of the experiment: MIC by microplate alamarBlue assay (MABA). In kind it is cell-based, Mycobacterium tuberculosis. The settings on record: strain 13946: resistant to INH SM RFP EMB RBT PAS OFX; for MIC: Mycobacterium tuberculosis.
Experiment [17] deals with M. tuberculosis clinical strain 16825. The experiment is described as follows: MIC by microplate alamarBlue assay (MABA). The settings on record: strain 16825: resistant to INH RFP AK RFT; for MIC: Mycobacterium tuberculosis. The format is cell-based, Mycobacterium tuberculosis.
For experiment [18], the system named is M. tuberculosis clinical strain 14441. The experiment is described as follows: MIC by microplate alamarBlue assay (MABA). The following applies: strain 14441: resistant to INH RFP RBT AK CPM 1321 OFX LFX; for MIC: Mycobacterium tuberculosis. The format is cell-based, Mycobacterium tuberculosis.
For experiment [19], the system named is M. tuberculosis clinical strain 14619. Nature of the experiment: MIC by microplate alamarBlue assay (MABA). In kind it is cell-based, Mycobacterium tuberculosis. The following applies: strain 14619: resistant to INH RFP KM CPM AK 1321 PAS; for MIC: Mycobacterium tuberculosis.

SMILES strings stand for the structures. Values after ≈ are worked out from the molar mass of the structure shown.

`COc1ncc(-c2ccc(Cl)cc2)cc1[C@@H](c1ccccc1)[C@@](O)(CCN(C)C)c1cccc2ccccc12` [WX-081, sudapyridine]: the MBCs was >1.25 µg/mL in [1], 0.313 µg/mL in [6], >1.25 µg/mL in experiment [9] and >5 µg/mL in [10]. For the same molecule, the MIC worked out at 0.849 µg/mL (≈ 1.58 µM) in [2]; 0.026 µg/mL (≈ 0.0484 µM) in [3]; 0.111 µg/mL (≈ 0.207 µM) in experiment [4]; 0.17 µg/mL (≈ 0.317 µM) in [5]; 0.48 µg/mL (≈ 0.894 µM) in experiment [7]; 0.057 µg/mL (≈ 0.106 µM) in experiment [8]. Further, the minimum inhibitory concentration (MIC) in [11] came to 0.113 µg/mL (≈ 0.21 µM); in [12], 0.966 µg/mL (≈ 1.8 µM); in experiment [13], 0.235 µg/mL (≈ 0.438 µM); in [14], 0.109 µg/mL (≈ 0.203 µM); in experiment [15], 0.236 µg/mL (≈ 0.439 µM); in [16] it was 0.098 µg/mL (≈ 0.182 µM). Also, the MIC in experiment [17] was 0.226 µg/mL (≈ 0.421 µM); in [18] it was 0.465 µg/mL (≈ 0.866 µM); in experiment [19], 0.3 µg/mL (≈ 0.559 µM).

Take `NNC(=O)c1ccncc1` [INH, isoniazid]: the minimum inhibitory concentration (MIC) in experiment [2] is 3.01 µg/mL (≈ 21.9 µM); in experiment [3], 2.17 µg/mL (≈ 15.8 µM); in experiment [4], > 40 µg/mL; in experiment [5], 2.25 µg/mL (≈ 16.4 µM); in experiment [7], > 40 µg/mL; in [8] it was 2.45 µg/mL (≈ 17.9 µM). The minimal inhibitory concentration (MIC) in [11] is 2.35 µg/mL (≈ 17.1 µM); in experiment [12], > 40 µg/mL; in experiment [13], 2.41 µg/mL (≈ 17.5 µM); in experiment [14], 1.04 µg/mL (≈ 7.56 µM); in [15], 4.5 µg/mL (≈ 32.8 µM); in [16], 1.81 µg/mL (≈ 13.2 µM). For the same molecule, the minimum inhibitory concentration (MIC) in experiment [17] was 2.37 µg/mL (≈ 17.3 µM); in [18], > 40 µg/mL; in experiment [19] it was 4.38 µg/mL (≈ 31.9 µM).

Turning to `COc1nc2ccc(Br)cc2cc1[C@@H](c1ccccc1)[C@@](O)(CCN(C)C)c1cccc2ccccc12` [BDQ, bedaquiline], the MBCs in experiment [1] was >0.313 µg/mL; in [6], 0.156 µg/mL; in experiment [9] it was >0.32 µg/mL; in [10], >2.5 µg/mL. Also, the minimal inhibitory concentration (MIC) in experiment [2] came to 0.266 µg/mL (≈ 0.479 µM); in experiment [3], 0.006 µg/mL (≈ 0.0108 µM); in [4], 0.03 µg/mL (≈ 0.054 µM); in [5] it was 0.051 µg/mL (≈ 0.0918 µM); in experiment [7] it was 0.111 µg/mL (≈ 0.2 µM); in [8], 0.017 µg/mL (≈ 0.0306 µM). The MIC worked out at 0.053 µg/mL (≈ 0.0954 µM) in experiment [11]; 0.468 µg/mL (≈ 0.842 µM) in [12]; 0.048 µg/mL (≈ 0.0864 µM) in [13]; 0.028 µg/mL (≈ 0.0504 µM) in [14]; 0.09 µg/mL (≈ 0.162 µM) in [15]; 0.021 µg/mL (≈ 0.0378 µM) in experiment [16]. Moreover, the minimal inhibitory concentration (MIC) came to 0.06 µg/mL (≈ 0.108 µM) in experiment [17], 0.214 µg/mL (≈ 0.385 µM) in experiment [18] and 0.052 µg/mL (≈ 0.0936 µM) in [19].

Regarding `NC[C@H]1O[C@H](O[C@H]2[C@H](O)[C@@H](O[C@H]3O[C@H](CO)[C@@H](O)[C@H](N)[C@H]3O)[C@H](N)C[C@@H]2N)[C@H](O)[C@@H](O)[C@@H]1O` [KM, kanamycin], the MICs was 1.151 µg/mL in experiment [2]; 1.243 µg/mL in experiment [3]; >40 µg/mL in [4]; 1.186 µg/mL in [5]; >40 µg/mL in experiment [7]; 1.072 µg/mL in experiment [8]. Besides, the MICs in experiment [11] was 1.199 µg/mL; in [12] it was 0.437 µg/mL; in experiment [13], 1.199 µg/mL; in experiment [14] it was >40 µg/mL; in experiment [15], 2.302 µg/mL; in [16], 0.788 µg/mL. In addition, the MICs in [17] is >40 µg/mL; in experiment [18] it was >40 µg/mL; in [19], 1.195 µg/mL.

As to `CO[C@H]1/C=C/O[C@@]2(C)Oc3c(C)c(O)c4c(O)c(c(/C=N/N5CCN(C)CC5)c(O)c4c3C2=O)NC(=O)/C(C)=C\C=C\[C@H](C)[C@H](O)[C@@H](C)[C@@H](O)[C@@H](C)[C@H](OC(C)=O)[C@@H]1C` [RFP, rifampicin], the MIC in experiment [2] is 6.9 µg/mL (≈ 8.39 µM); in [3], 15.2 µg/mL (≈ 18.5 µM); in experiment [4], > 40 µg/mL; in experiment [5], > 40 µg/mL; in [7], > 40 µg/mL; in experiment [8] it was > 40 µg/mL. Besides, the minimal inhibitory concentration (MIC) in experiment [11], in experiment [12], in [13], in experiment [14], in experiment [15] and in [16] was > 40 µg/mL in each case. Further, the MIC in [17], in experiment [18] and in experiment [19] was > 40 µg/mL throughout.

What is called MIC is the lowest concentration found to suppress growth. Read a high MIC as a less susceptible organism.

Source of the values: paper PMC8849072, “Sudapyridine (WX-081), a Novel Compound against Mycobacterium tuberculosis” (Microbiology Spectrum, 2022).
